Experimental data as given in US20250313604A1, “PEPTIDE PHARMACEUTICALS FOR INSULIN RESISTANCE” (Mederis Diabetes LLC, priority 2014, published 2025).

What was measured:
[1] = in water; cited from earlier work
db/db mice = test: In vivo assay in db/db mice (blood glucose, body weight, food consumption)
[2] = high dose (300 nmoles/kg) s.c., Days 2 and 3

CCCCCCCCCCCCCCO[C@@H]1O[C@H](CO)[C@@H](O[C@@H]2O[C@@H](CO)[C@H](O)[C@@H](O)[C@@H]2O)[C@H](O)[C@H]1O (stereo in doubt) [Tetradecyl maltoside]
CMC [1]: 0.01 mM

CCCCCCCCO[C@@H]1O[C@H](C(=O)NCCCC[C@H](NC(=O)[C@@H](NC(=O)[C@H](Cc2ccccc2)NC(=O)[C@H](CCC(=O)O)NC(=O)[C@@H]2CCCCNC(=O)CC[C@H](NC(=O)[C@H](CC(=O)O)NC(=O)[C@H](CC(C)C)NC(=O)[C@H](Cc3ccc(O)cc3)NC(=O)[C@H](CCCCN)NC(=O)[C@H](CO)NC(=O)[C@H](Cc3ccc(O)cc3)NC(=O)[C@H](CC(=O)O)NC(=O)[C@H](CO)NC(=O)[C@@H](NC(=O)[C@H](Cc3ccccc3)NC(=O)[C@@H](NC(=O)CNC(=O)[C@H](CCC(N)=O)NC(=O)C(C)(C)NC(=O)[C@@H](N)Cc3c[nH]cn3)[C@@H](C)O)[C@@H](C)O)C(=O)N[C@@H](CCC(N)=O)C(=O)N[C@@H](C)C(=O)N[C@@H](C)C(=O)N2)[C@@H](C)CC)C(=O)N[C@@H](Cc2c[nH]c3ccccc23)C(=O)N[C@@H](CC(C)C)C(=O)N[C@@H](CC(C)C)C(=O)N[C@@H](CCC(N)=O)C(=O)N[C@H](C(N)=O)[C@@H](C)O)[C@@H](O)[C@H](O)[C@H]1O [EU-A992]
db/db mice - Mean Blood Glucose (db/db mice; 250 nmole/kg s.c., 0 hr): 405 mg/dL
db/db mice - Mean Blood Glucose (db/db mice; 250 nmole/kg s.c., 10 hr): 104 mg/dL
db/db mice - Mean Blood Glucose (db/db mice; 250 nmole/kg s.c., 24 hr): 112 mg/dL
db/db mice - Mean Blood Glucose (db/db mice; 250 nmole/kg s.c., 48 hr): 130 mg/dL

CCCCCCCCCCCCCCO[C@@H]1O[C@H](C(=O)NCCCC[C@H](NC(=O)[C@@H](NC(=O)[C@H](Cc2ccccc2)NC(=O)[C@H](CCC(=O)O)NC(=O)[C@@H]2CCCCNC(=O)CC[C@H](NC(=O)[C@H](CC(=O)O)NC(=O)[C@H](CC(C)C)NC(=O)[C@H](Cc3ccc(O)cc3)NC(=O)[C@H](CCCCN)NC(=O)[C@H](CO)NC(=O)[C@H](Cc3ccc(O)cc3)NC(=O)[C@H](CC(=O)O)NC(=O)[C@H](CO)NC(=O)[C@@H](NC(=O)[C@H](Cc3ccccc3)NC(=O)[C@@H](NC(=O)CNC(=O)[C@H](CCC(N)=O)NC(=O)C(C)(C)NC(=O)[C@@H](N)Cc3c[nH]cn3)[C@@H](C)O)[C@@H](C)O)C(=O)N[C@@H](CCC(N)=O)C(=O)N[C@@H](C)C(=O)N[C@@H](C)C(=O)N2)[C@@H](C)CC)C(=O)N[C@@H](Cc2c[nH]c3ccccc23)C(=O)N[C@@H](CC(C)C)C(=O)N[C@@H](CC(C)C)C(=O)N[C@@H](CCC(N)=O)C(=O)N[C@H](C(N)=O)[C@@H](C)O)[C@@H](O)[C@H](O)[C@H]1O [EU-A994, His1-Aib2-Gln3-Gly4-Thr5-Phe6-Thr7-Ser8-Asp9-Tyr10-Ser11-Lys12-Tyr13-Leu14-Asp15-Glu*16-Gln17-Ala18-Ala19-Lys*20-Glu21-Phe22-Ile23-Lys(N-omega(1-tetradecylbeta-D-glucuronyl))24-Trp25-Leu26-Leu27-Gln28-Thr29-NH2]
db/db mice - Mean Blood Glucose (db/db mice; 300 nmole/kg s.c., 0 hr): 554 mg/dL
db/db mice - Mean Blood Glucose (db/db mice; 300 nmole/kg s.c., 10 hr): 242 mg/dL
db/db mice - Mean Blood Glucose (db/db mice; 300 nmole/kg s.c., 24 hr): 209 mg/dL
db/db mice - Mean Blood Glucose (db/db mice; 300 nmole/kg s.c., 48 hr): 385 mg/dL
body weight changes against vehicle (db/db mice; [2]): Significant body weight changes

CCCCCCCCCCCCCCCCCCO[C@@H]1O[C@H](CO[C@H]2O[C@H](C(=O)NCCCC[C@H](NC(=O)[C@@H](NC(=O)[C@H](Cc3ccccc3)NC(=O)[C@H](CCC(=O)O)NC(=O)[C@@H]3CCCCNC(=O)CC[C@H](NC(=O)[C@H](CC(=O)O)NC(=O)[C@H](CC(C)C)NC(=O)[C@H](Cc4ccc(O)cc4)NC(=O)[C@H](CCCCN)NC(=O)[C@H](CO)NC(=O)[C@H](Cc4ccc(O)cc4)NC(=O)[C@H](CC(=O)O)NC(=O)[C@H](CO)NC(=O)[C@@H](NC(=O)[C@H](Cc4ccccc4)NC(=O)[C@@H](NC(=O)CNC(=O)[C@H](CCC(N)=O)NC(=O)C(C)(C)NC(=O)[C@@H](N)Cc4c[nH]cn4)[C@@H](C)O)[C@@H](C)O)C(=O)N[C@@H](CCC(N)=O)C(=O)N[C@@H](C)C(=O)N[C@@H](C)C(=O)N3)[C@@H](C)CC)C(=O)N[C@@H](Cc3c[nH]c4ccccc34)C(=O)N[C@@H](CC(C)C)C(=O)N[C@@H](CC(C)C)C(=O)N[C@@H](CCC(N)=O)C(=O)N[C@H](C(N)=O)[C@@H](C)O)[C@H](O)[C@H](O)[C@H]2O)[C@@H](O)[C@H](O)[C@H]1O [EU-A1026, His1-Aib2-Gln3-Gly4-Thr5-Phe6-Thr7-Ser8-Asp9-Tyr10-Ser11-Lys12-Tyr13-Leu14-Asp15-Glu*16-Gln17 Ala18-Ala19-Lys*20-Glu21-Phe22-Ile23-Lys (N-omega (1-octadecyl beta-D-melibiouronyl)) 24-Trp25-Leu26-Leu27-Gln28-Thr29-NH2]
db/db mice - Mean Blood Glucose (db/db mice; 300 nmole/kg s.c., 0 hr): 531 mg/dL
db/db mice - Mean Blood Glucose (db/db mice; 300 nmole/kg s.c., 10 hr): 399 mg/dL
db/db mice - Mean Blood Glucose (db/db mice; 300 nmole/kg s.c., 24 hr): 438 mg/dL
db/db mice - Mean Blood Glucose (db/db mice; 300 nmole/kg s.c., 48 hr): 505 mg/dL
body weight changes against vehicle (db/db mice; [2]): Significant body weight changes
glucose levels versus liraglutide (db/db mice; low dose (100 nmoles/kg) s.c., 10 hours): significantly different from liraglutide
body weight changes against vehicle (db/db mice; low dose (100 nmoles/kg) s.c., Days 3 and 4): Significant body weight changes

CCCCCCCCCCO[C@@H]1O[C@H](C(=O)NCCCC[C@H](NC(=O)[C@@H](NC(=O)[C@H](Cc2ccccc2)NC(=O)[C@H](CCC(=O)O)NC(=O)[C@@H]2CCCCNC(=O)CC[C@H](NC(=O)[C@H](CC(=O)O)NC(=O)[C@H](CC(C)C)NC(=O)[C@H](Cc3ccc(O)cc3)NC(=O)[C@H](CCCCN)NC(=O)[C@H](CO)NC(=O)[C@H](Cc3ccc(O)cc3)NC(=O)[C@H](CC(=O)O)NC(=O)[C@H](CO)NC(=O)[C@@H](NC(=O)[C@H](Cc3ccccc3)NC(=O)[C@@H](NC(=O)CNC(=O)[C@H](CCC(N)=O)NC(=O)C(C)(C)NC(=O)[C@@H](N)Cc3c[nH]cn3)[C@@H](C)O)[C@@H](C)O)C(=O)N[C@@H](CCC(N)=O)C(=O)N[C@@H](C)C(=O)N[C@@H](C)C(=O)N2)[C@@H](C)CC)C(=O)N[C@@H](Cc2c[nH]c3ccccc23)C(=O)N[C@@H](CC(C)C)C(=O)N[C@@H](CC(C)C)C(=O)N[C@@H](CCC(N)=O)C(=O)N[C@H](C(N)=O)[C@@H](C)O)[C@@H](O)[C@H](O)[C@H]1O [EU-A1167]
db/db mice - Mean Blood Glucose (db/db mice; 250 nmole/kg s.c., 0 hr): 379 mg/dL
db/db mice - Mean Blood Glucose (db/db mice; 250 nmole/kg s.c., 10 hr): 171 mg/dL
db/db mice - Mean Blood Glucose (db/db mice; 250 nmole/kg s.c., 24 hr): 117 mg/dL
db/db mice - Mean Blood Glucose (db/db mice; 250 nmole/kg s.c., 48 hr): 113 mg/dL

CCCCCCCCCCCO[C@@H]1O[C@H](C(=O)NCCCC[C@H](NC(=O)[C@@H](NC(=O)[C@H](Cc2ccccc2)NC(=O)[C@H](CCC(=O)O)NC(=O)[C@@H]2CCCCNC(=O)CC[C@H](NC(=O)[C@H](CC(=O)O)NC(=O)[C@H](CC(C)C)NC(=O)[C@H](Cc3ccc(O)cc3)NC(=O)[C@H](CCCCN)NC(=O)[C@H](CO)NC(=O)[C@H](Cc3ccc(O)cc3)NC(=O)[C@H](CC(=O)O)NC(=O)[C@H](CO)NC(=O)[C@@H](NC(=O)[C@H](Cc3ccccc3)NC(=O)[C@@H](NC(=O)CNC(=O)[C@H](CCC(N)=O)NC(=O)C(C)(C)NC(=O)[C@@H](N)Cc3c[nH]cn3)[C@@H](C)O)[C@@H](C)O)C(=O)N[C@@H](CCC(N)=O)C(=O)N[C@@H](C)C(=O)N[C@@H](C)C(=O)N2)[C@@H](C)CC)C(=O)N[C@@H](Cc2c[nH]c3ccccc23)C(=O)N[C@@H](CC(C)C)C(=O)N[C@@H](CC(C)C)C(=O)N[C@@H](CCC(N)=O)C(=O)N[C@H](C(N)=O)[C@@H](C)O)[C@@H](O)[C@H](O)[C@H]1O [EU-A1168]
db/db mice - Mean Blood Glucose (db/db mice; 250 nmole/kg s.c., 0 hr): 380 mg/dL
db/db mice - Mean Blood Glucose (db/db mice; 250 nmole/kg s.c., 10 hr): 133 mg/dL
db/db mice - Mean Blood Glucose (db/db mice; 250 nmole/kg s.c., 24 hr): 169 mg/dL
db/db mice - Mean Blood Glucose (db/db mice; 250 nmole/kg s.c., 48 hr): 164 mg/dL
